Results published in patent US12190997B2, “Genetically altered LysM receptors with altered agonist specificity and affinity” (Aarhus Universitet, priority 2018, dated 2025).

Tests used:
[1] = molecular target: LjLYS11 ectodomain (Lotus japonicus, UniProt D3KTZ8); assay: BLI binding of LjLYS11 ectodomain to ligands; details: FIG. 15C
Description: LjLYS11 ectodomain production and purification: The LjLYS11 ectodomain (residues 26-234; SEQ ID NO:60) was codon-optimized for insect cell expression (Genscript, Piscataway, USA) and cloned into the pOET4 baculovirus transfer vector (Oxford Expression Technologies). The native LjLYS11 signal peptide was replaced with the gp64 signal peptide (SEQ ID NO:59) to facilitate secretion and a hexa-histidine (6×His; SEQ ID NO:61) tag was added to the C-terminus (LjLYS11-ecto (26-234), N-term gp64, C-term 6His=SEQ ID NO:56). Recombinant baculoviruses were produced in Sf9 cells (Spodoptera frugiperda) using the FlashBac Gold kit (Oxford Expression technologies) according to the manufacturer's instructions with Lipofectin (ThermoFisher Scientific) as a transfection reagent. Protein expression was performed as follows. […]
Biolayer interferometry (BLI): Binding of LjLYS11 ectodomain and domain-swapped versions of LjLYS11 ectodomain to ligands was measured on an Octet RED 96 system (Pall ForteBio). […] Equilibrium dissociation constants derived from the steady-state were determined by applying a non-linear regression (one site, specific binding) to the response at equilibrium plotted against the protein concentration. Kinetic parameters were determined by non-linear regression (association followed by dissociation) on the subtracted data. […]

[2] = test system: ectodomain where LysM2 from LjLYS11 was replaced with LysM2 from LjNFR5; assay: BLI binding of LjLYS11 ectodomain with LysM2 replaced by LysM2 from LjNFR5; design: species or system Lotus japonicus; details: FIG. 15D
Description: Biolayer interferometry (BLI): Binding of LjLYS11 ectodomain and domain-swapped versions of LjLYS11 ectodomain to ligands was measured on an Octet RED 96 system (Pall ForteBio). The ligands used were CO5 chitin oligomer (corresponding to the backbone of S. meliloti LCO-V), M. loti LCO, and S. meliloti LCO. S. meliloti LCO consists of a tetrameric/pentameric N-acetylglucosamine backbone that is O-sulfated on the reducing terminal residue, O-acetylated on the non-reducing terminal residue, and mono-N-acylated by unsaturated C16 acyl groups. M. loti LCO is a pentameric N-acetylglucosamine with a cis-vaccenic acid and a carbamoyl group at the non-reducing terminal residue together with a 2,4-O-acetylfucose at the reducing terminal residue. Biotinylated ligand conjugates were immobilized on streptavidin biosensors (kinetic quality, Pall ForteBio) at a concentration of 125-250 nM for 5 minutes. Data analysis was performed in GraphPad Prism 6 software (GraphPad Software, Inc.). Equilibrium dissociation constants derived from the steady-state were determined by applying a non-linear regression (one site, specific binding) to the response at equilibrium plotted against the protein concentration. Kinetic parameters were determined by non-linear regression (association followed by dissociation) on the subtracted data. […]

[3] = test system: HvRLK10 ectodomain; assay: BLI binding of HvRLK10 ectodomain to ligands; design: species or system Hordeum vulgare; details: FIGS. 16A, 16C-16D
Description: (§1) Expression and purification of ectodomain: The HvRLK10 ectodomain (residues 25-231; SEQ ID NO:66) was codon-optimized for insect cell expression (Genscript, Piscataway, USA) and cloned into the pOET4 baculovirus transfer vector (Oxford Expression Technologies). The native HvRLK10 signal peptide was replaced with the gp64 signal peptide (SEQ ID NO:59) to facilitate secretion and a hexa-histidine (6×HIS; SEQ ID NO:61) tag was added to the C-terminus (HvRLK10-ecto (25-231), N-term gp64, C-term 6His=SEQ ID NO:65). The HvRLK4 ectodomain (residues 27-228; SEQ ID NO:68) was codon-optimized for insect cell expression (Genscript, Piscataway, USA) and cloned into the pOET4 baculovirus transfer vector (Oxford Expression Technologies). […]
(§2) Biolayer interferometry (BLI): Binding of HvRLK10 ectodomain or HvRLK4 ectodomain to ligands was measured on an Octet RED 96 system (Pall ForteBio). […] Equilibrium dissociation constants derived from the steady-state were determined by applying a non-linear regression (one site, specific binding) to the response at equilibrium plotted against the protein concentration. Kinetic parameters were determined by non-linear regression (association followed by dissociation) on the subtracted data.

[4] = test system: HvRLK4 ectodomain; assay: BLI binding of HvRLK4 ectodomain to ligands; design: species or system Hordeum vulgare; details: FIGS. 16E, 16G-16H
Description: as §1, §2

Sequence of LjLYS11 ectodomain (D3KTZ8 entry or part of it): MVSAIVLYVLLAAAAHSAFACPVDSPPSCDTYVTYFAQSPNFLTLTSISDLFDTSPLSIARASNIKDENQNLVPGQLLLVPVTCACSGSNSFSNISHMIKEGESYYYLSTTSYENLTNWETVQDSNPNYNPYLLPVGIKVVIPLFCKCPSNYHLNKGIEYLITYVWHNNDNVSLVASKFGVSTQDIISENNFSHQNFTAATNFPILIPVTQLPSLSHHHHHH

## CC(=O)N[C@H]1[C@H](O[C@H]2[C@H](O)[C@@H](NC(C)=O)[C@H](O[C@H]3[C@H](O)[C@@H](NC(C)=O)C(O)O[C@@H]3CO)O[C@@H]2CO)O[C@H](CO)[C@@H](O[C@@H]2O[C@H](CO)[C@@H](O[C@@H]3O[C@H](CO)[C@@H](O)[C@H](O)[C@H]3NC(C)=O)[C@H](O)[C@H]2NC(C)=O)[C@@H]1O (stereo partly shown) [CO5]
[1]
  binding: able to bind
[2]
  binding compared with unmodified LjLYS11 ectodomain: loss of ability to bind
[3]
  binding: did not bind
[4]
  binding: did not bind
